# Assay results reported in ChEMBL document CHEMBL1201862, “PubChem BioAssay data set” (2004).
#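 Test compounds were applied to cells in 96-well plates for 48 hours at 5 doses. At the GI50, growth is halved.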 Activity calls are given as the source filed them. No stated cut-off is given here; in the data, active = GI50 up to about 1.1 µM and inactive = higher.
# Columns and labels:
# Experiment in all cases: inhibition of tumour cell growth, NCI panel, 48 h
# Hs-578T = tested on: Hs-578T
# SK-OV-3 = tested on: SK-OV-3
# UACC-257 = tested on: UACC-257
# HT-29 = tested on: HT-29
# MDA-MB-435 = tested on: MDA-MB-435
# K562 = tested on: K562
# MOLT-4 = tested on: MOLT-4
# SK-MEL-28 = tested on: SK-MEL-28
# LOX IMVI = tested on: LOX IMVI
# COLO 205 = tested on: COLO 205
# A498 = tested on: A498
# CAKI-1 = tested on: CAKI-1
# SNB-75 = tested on: SNB-75
# HCC 2998 = tested on: HCC 2998
# SK-MEL-2 = tested on: SK-MEL-2
# T47D = tested on: T47D
# ACHN = tested on: ACHN
# MDA-MB-231 = tested on: MDA-MB-231
# TK-10 = tested on: TK-10
# 786-0 = tested on: 786-0
# UO-31 = tested on: UO-31
# NCI-H226 = tested on: NCI-H226
# EKVX = tested on: EKVX
# M14 = tested on: M14
# SK-MEL-5 = tested on: SK-MEL-5
# PC-3 = tested on: PC-3
# NCI/ADR-RES = tested on: NCI/ADR-RES
# U-251 = tested on: U-251
# SR = tested on: SR
# IGROV-1 = tested on: IGROV-1
# SF-268 = tested on: SF-268
# SN12C = tested on: SN12C
# SF-539 = tested on: SF-539
# NCI-H23 = tested on: NCI-H23
# DU-145 = tested on: DU-145
# CCRF-CEM = tested on: CCRF-CEM
# MCF7 = tested on: MCF7
# A549 = tested on: A549
# RPMI-8226 = tested on: RPMI-8226
# Malme-3M = tested on: Malme-3M
# OVCAR-4 = tested on: OVCAR-4
# HCT-116 = tested on: HCT-116
# SW-620 = tested on: SW-620
# OVCAR-8 = tested on: OVCAR-8
# OVCAR-5 = tested on: OVCAR-5
# HL-60 = tested on: HL-60
# HOP-62 = tested on: HOP-62
# UACC-62 = tested on: UACC-62
# SF-295 = tested on: SF-295
# SNB-19 = tested on: SNB-19
# KM12 = tested on: KM12
# MDA-N = tested on: MDA-N
# HCT-15 = tested on: HCT-15
# NCI-H460 = tested on: NCI-H460
# RXF 393 = tested on: RXF 393
# OVCAR-3 = tested on: OVCAR-3
# NCI-H522 = tested on: NCI-H522
smiles,measurement,setting,value
O=C(CC(C(=O)c1cccs1)c1ccsc1)c1ccc(Cl)cc1 (stereo not drawn),GI50,Hs-578T,> 100 µM (inactive)
same,GI50,SK-OV-3,> 100 µM (inactive)
same,GI50,UACC-257,> 100 µM (inactive)
same,GI50,HT-29,> 100 µM (inactive)
same,GI50,MDA-MB-435,> 100 µM (inactive)
same,GI50,K562,> 100 µM (inactive)
same,GI50,MOLT-4,> 100 µM (inactive)
same,GI50,SK-MEL-28,> 100 µM (inactive)
same,GI50,LOX IMVI,> 100 µM (inactive)
same,GI50,COLO 205,> 100 µM (inactive)
same,GI50,A498,> 100 µM (inactive)
same,GI50,CAKI-1,> 100 µM (inactive)
same,GI50,SNB-75,> 100 µM (inactive)
same,GI50,HCC 2998,> 100 µM (inactive)
same,GI50,SK-MEL-2,> 100 µM (inactive)
same,GI50,T47D,> 100 µM (inactive)
same,GI50,ACHN,> 100 µM (inactive)
same,GI50,MDA-MB-231,> 100 µM (inactive)
same,GI50,TK-10,> 100 µM (inactive)
same,GI50,786-0,> 100 µM (inactive)
same,GI50,UO-31,> 100 µM (inactive)
same,GI50,NCI-H226,81.8 µM (inactive)
same,GI50,EKVX,> 100 µM (inactive)
same,GI50,M14,> 100 µM (inactive)
same,GI50,SK-MEL-5,> 100 µM (inactive)
same,GI50,PC-3,> 100 µM (inactive)
same,GI50,NCI/ADR-RES,83.8 µM (inactive)
same,GI50,U-251,> 100 µM (inactive)
same,GI50,SR,> 100 µM (inactive)
same,GI50,IGROV-1,> 100 µM (inactive)
same,GI50,SF-268,> 100 µM (inactive)
same,GI50,SN12C,> 100 µM (inactive)
same,GI50,SF-539,> 100 µM (inactive)
same,GI50,NCI-H23,> 100 µM (inactive)
same,GI50,DU-145,> 100 µM (inactive)
same,GI50,CCRF-CEM,> 100 µM (inactive)
same,GI50,MCF7,> 100 µM (inactive)
same,GI50,A549,> 100 µM (inactive)
same,GI50,RPMI-8226,> 100 µM (inactive)
same,GI50,Malme-3M,> 100 µM (inactive)
same,GI50,OVCAR-4,> 100 µM (inactive)
same,GI50,HCT-116,> 100 µM (inactive)
same,GI50,SW-620,> 100 µM (inactive)
same,GI50,OVCAR-8,> 100 µM (inactive)
same,GI50,OVCAR-5,> 100 µM (inactive)
same,GI50,HL-60,> 100 µM (inactive)
same,GI50,HOP-62,> 100 µM (inactive)
same,GI50,UACC-62,> 100 µM (inactive)
same,GI50,SF-295,> 100 µM (inactive)
same,GI50,SNB-19,> 100 µM (inactive)
same,GI50,KM12,> 100 µM (inactive)
same,GI50,MDA-N,> 100 µM (inactive)
same,GI50,HCT-15,> 100 µM
same,GI50,NCI-H460,> 100 µM (inactive)
CCCCC(=O)c1c(O)nc2sccn2c1=O,GI50,Hs-578T,> 10 µM (inactive)
same,GI50,SK-OV-3,> 10 µM (inactive)
same,GI50,HT-29,> 10 µM (inactive)
same,GI50,MDA-MB-435,> 10 µM (inactive)
same,GI50,MOLT-4,> 10 µM (inactive)
same,GI50,SK-MEL-28,> 10 µM (inactive)
same,GI50,LOX IMVI,> 10 µM (inactive)
same,GI50,COLO 205,> 10 µM (inactive)
same,GI50,A498,> 10 µM (inactive)
same,GI50,CAKI-1,> 10 µM (inactive)
same,GI50,SNB-75,> 10 µM (inactive)
same,GI50,HCC 2998,> 10 µM (inactive)
same,GI50,SK-MEL-2,> 10 µM (inactive)
same,GI50,T47D,> 10 µM (inactive)
same,GI50,ACHN,> 10 µM (inactive)
same,GI50,MDA-MB-231,> 10 µM (inactive)
same,GI50,TK-10,> 10 µM (inactive)
same,GI50,UO-31,> 10 µM (inactive)
same,GI50,NCI-H226,> 10 µM (inactive)
same,GI50,EKVX,> 10 µM (inactive)
same,GI50,M14,> 10 µM (inactive)
same,GI50,SK-MEL-5,> 10 µM (inactive)
same,GI50,PC-3,> 10 µM (inactive)
same,GI50,NCI/ADR-RES,> 10 µM (inactive)
same,GI50,U-251,> 10 µM (inactive)
same,GI50,SR,> 10 µM (inactive)
same,GI50,IGROV-1,> 10 µM (inactive)
same,GI50,SF-268,> 10 µM (inactive)
same,GI50,SN12C,> 10 µM (inactive)
same,GI50,SF-539,> 10 µM (inactive)
same,GI50,NCI-H23,> 10 µM (inactive)
same,GI50,DU-145,> 10 µM (inactive)
same,GI50,CCRF-CEM,> 10 µM (inactive)
same,GI50,MCF7,> 10 µM (inactive)
same,GI50,A549,> 10 µM (inactive)
same,GI50,RPMI-8226,> 10 µM (inactive)
same,GI50,RXF 393,> 10 µM (inactive)
same,GI50,Malme-3M,> 10 µM (inactive)
same,GI50,OVCAR-4,> 10 µM (inactive)
same,GI50,HCT-116,> 10 µM (inactive)
same,GI50,SW-620,> 10 µM (inactive)
same,GI50,OVCAR-3,> 10 µM (inactive)
same,GI50,OVCAR-8,> 10 µM (inactive)
same,GI50,OVCAR-5,> 10 µM (inactive)
same,GI50,HL-60,> 10 µM (inactive)
same,GI50,HOP-62,> 10 µM (inactive)
same,GI50,NCI-H522,> 10 µM (inactive)
same,GI50,UACC-62,> 10 µM (inactive)
same,GI50,SF-295,> 10 µM (inactive)
same,GI50,SNB-19,> 10 µM (inactive)
same,GI50,KM12,> 10 µM (inactive)
same,GI50,MDA-N,> 10 µM (inactive)
same,GI50,HCT-15,> 10 µM
same,GI50,NCI-H460,> 10 µM (inactive)
